# Measured values: PubChem BioAssay AID328 (DTP/NCI, 2004)
# “And” between values parts separate entries of the source, which are not always exact repeats. Equal values may be shown once. Toxic doses and inconclusive results are not listed.
# System: BDF1 mice, P388 leukemia ip, median survival T/C
# Experiment: NCI In Vivo Anticancer Drug Screen. Data for tumor model P388 Leukemia (intraperitoneal) in B6D2F1 (BDF1) mice
# Details: endpoint: median survival time, higher = longer survival
# Procedure, shortened: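 Compound-treated tumour-bearing mice were compared with vehicle-treated controls. Survival was recorded, and the value is the treated-group measurement divided by the control-group measurement (T/C).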
# [1] = dose: 100.0 mg/kg/injection, schedule: Q01DX009 (ip), vehicle: Klucel (hydroxypropylcellulose) (HPC)
# [2] = dose: 200.0 mg/kg/injection, schedule: Q01DX009 (ip), vehicle: Klucel (hydroxypropylcellulose) (HPC)
# [3] = dose: 400.0 mg/kg/injection, schedule: Q01DX009 (ip), vehicle: Klucel (hydroxypropylcellulose) (HPC)
# [4] = dose: 25.0 mg/kg/injection, schedule: Q01DX009 (ip), vehicle: saline with Tween-80
# [5] = dose: 50.0 mg/kg/injection, schedule: Q01DX009 (ip), vehicle: saline with Tween-80
# [6] = dose: 100.0 mg/kg/injection, schedule: Q04DX003 (ip), vehicle: saline with Tween-80
# [7] = dose: 200.0 mg/kg/injection, schedule: Q04DX003 (ip), vehicle: saline with Tween-80
# [8] = dose: 400.0 mg/kg/injection, schedule: Q04DX003 (ip), vehicle: saline with Tween-80
# [9] = dose: 100.0 mg/kg/injection, schedule: Q01DX009 (ip), vehicle: saline with Tween-80
# [10] = dose: 200.0 mg/kg/injection, schedule: Q01DX009 (ip), vehicle: saline with Tween-80
# [11] = dose: 100.0 mg/kg/injection, schedule: Q01DX005 (ip), vehicle: saline with Tween-80
# [12] = dose: 200.0 mg/kg/injection, schedule: Q01DX005 (ip), vehicle: saline with Tween-80
# [13] = dose: 100.0 mg/kg/injection, schedule: Q04DX003 (ip), vehicle: saline
# [14] = dose: 200.0 mg/kg/injection, schedule: Q04DX003 (ip), vehicle: saline
# [15] = dose: 100.0 mg/kg/injection, schedule: Q04DX003 (ip), vehicle: saline sonified
# [16] = dose: 200.0 mg/kg/injection, schedule: Q04DX003 (ip), vehicle: saline sonified
# [17] = dose: 400.0 mg/kg/injection, schedule: Q04DX003 (ip), vehicle: saline sonified
smiles,measurement,setting,value
CCS(=O)(=O)C(N=Nc1ccccc1)S(=O)(=O)CC,T/C,"dose: 20.0 mg/kg/injection, schedule: Q01DX009 (ip), vehicle: Klucel (hydroxypropylcellulose) (HPC)",107 % of control
same,T/C,"dose: 40.0 mg/kg/injection, schedule: Q01DX009 (ip), vehicle: Klucel (hydroxypropylcellulose) (HPC)",101 % of control
same,T/C,"dose: 80.0 mg/kg/injection, schedule: Q01DX009 (ip), vehicle: Klucel (hydroxypropylcellulose) (HPC)",107 % of control
O=C(CCCCC(=O)Nc1ccc(C2=NCCN2)cc1)Nc1ccc(C2=NCCN2)cc1,T/C,"dose: 3.6 mg/kg/injection, schedule: Q01DX009 (ip), vehicle: Klucel (hydroxypropylcellulose) (HPC)",104 % of control
same,T/C,"dose: 5.4 mg/kg/injection, schedule: Q01DX009 (ip), vehicle: Klucel (hydroxypropylcellulose) (HPC)",100 % of control
same,T/C,"dose: 65.0 mg/kg/injection, schedule: Q01DX009 (ip), vehicle: Klucel (hydroxypropylcellulose) (HPC)",168 % of control
same,T/C,[1],190 % of control
same,T/C,"dose: 100.0 mg/kg/injection, schedule: Q04DX003 (ip), vehicle: other",111 % of control
same,T/C,"dose: 132.0 mg/kg/injection, schedule: Q01DX009 (ip), vehicle: Klucel (hydroxypropylcellulose) (HPC)",204 % of control
same,T/C,[2],225 % of control and 172 % of control and 209 % of control
same,T/C,"dose: 200.0 mg/kg/injection, schedule: Q04DX003 (ip), vehicle: other",116 % of control
same,T/C,"dose: 264.0 mg/kg/injection, schedule: Q04DX003 (ip), vehicle: Klucel (hydroxypropylcellulose) (HPC)",180 % of control
same,T/C,"dose: 300.0 mg/kg/injection, schedule: Q01DX009 (ip), vehicle: Klucel (hydroxypropylcellulose) (HPC)",257 % of control and 213 % of control
same,T/C,[3],100 % of control
same,T/C,"dose: 400.0 mg/kg/injection, schedule: Q04DX003 (ip), vehicle: Klucel (hydroxypropylcellulose) (HPC)",225 % of control and 168 % of control
same,T/C,"dose: 400.0 mg/kg/injection, schedule: Q04DX003 (ip), vehicle: other",161 % of control
CCCCCCCCCCCCCCC(F)C(=O)OCC1OC(CO)(OC2OC(CO)C(O)C(O)C2O)C(O)C1O (stereo not drawn),T/C,[4],116 % of control
same,T/C,[5],108 % of control
same,T/C,"dose: 50.0 mg/kg/injection, schedule: Q04DX003 (ip), vehicle: saline with Tween-80",108 % of control
same,T/C,[6],91 % of control
Nc1ncnc2[nH]c(=O)[nH]c12,T/C,"dose: 12.5 mg/kg/injection, schedule: Q01DX009 (ip), vehicle: saline with Tween-80",104 % of control
same,T/C,[4],109 % of control
same,T/C,[7],104 % of control
same,T/C,[8],114 % of control
CCOC(=O)c1cnn(C(N)=O)c1N,T/C,[9],115 % of control
same,T/C,[6],110 % of control
same,T/C,[10],90 % of control
same,T/C,[7],115 % of control
same,T/C,"dose: 400.0 mg/kg/injection, schedule: Q01DX009 (ip), vehicle: saline with Tween-80",109 % of control and 115 % of control
same,T/C,[8],115 % of control
CN1CCN(C)P1c1ccccc1,T/C,[5],109 % of control
same,T/C,[9],112 % of control
same,T/C,[10],110 % of control
Cc1cc(N2CCOCC2)nc(N2CCOCC2)c1C#N,T/C,[11],91 % of control
same,T/C,[12],99 % of control
CC(C)(C)C1CCC(C#N)(NNc2ccccc2)CC1 (stereo not drawn),T/C,"dose: 50.0 mg/kg/injection, schedule: Q01DX005 (ip), vehicle: saline with Tween-80",90 % of control
same,T/C,[11],106 % of control
same,T/C,[12],89 % of control
CCCOP(=S)(N1CC1(C)C)N1CC1(C)C (stereo not drawn),T/C,"dose: 66.0 mg/kg/injection, schedule: Q01DX009 (ip), vehicle: saline with Tween-80",168 % of control
same,T/C,[9],209 % of control and 222 % of control
same,T/C,[6],116 % of control
same,T/C,[7],108 % of control
CCOc1ccc(Nc2c3ccccc3nc3ccccc23)cc1,T/C,"dose: 0.39 mg/kg/injection, schedule: Q01DX009 (ip), vehicle: Klucel (hydroxypropylcellulose) (HPC)",110 % of control
same,T/C,"dose: 0.78 mg/kg/injection, schedule: Q01DX009 (ip), vehicle: Klucel (hydroxypropylcellulose) (HPC)",114 % of control
same,T/C,"dose: 1.56 mg/kg/injection, schedule: Q01DX009 (ip), vehicle: Klucel (hydroxypropylcellulose) (HPC)",96 % of control
same,T/C,"dose: 50.0 mg/kg/injection, schedule: Q01DX009 (ip), vehicle: Klucel (hydroxypropylcellulose) (HPC)",159 % of control
Cc1ccc(S(=O)(=O)N(C)c2ccccc2C(=O)O)cc1,T/C,"dose: 100.0 mg/kg/injection, schedule: Q01DX001 (ip), vehicle: saline sonified",100 % of control
same,T/C,"dose: 200.0 mg/kg/injection, schedule: Q01DX001 (ip), vehicle: saline sonified",95 % of control
same,T/C,"dose: 400.0 mg/kg/injection, schedule: Q01DX001 (ip), vehicle: saline sonified",100 % of control
C/C=C1\CN(C)[C@H]2Cc3c([nH]c4ccccc34)[C@@H](c3cc4[nH]c5c(c4cc3OC)CCN3C[C@H]4C[C@H](CC)[C@H]3[C@@]5(C(=O)OC)C4)C[C@H]1C2C(=O)OC (stereo partly drawn),T/C,"dose: 5.0 mg/kg/injection, schedule: Q01DX010 (ip), vehicle: water",90 % of control
same,T/C,"dose: 10.0 mg/kg/injection, schedule: Q01DX010 (ip), vehicle: water",109 % of control
same,T/C,"dose: 20.0 mg/kg/injection, schedule: Q01DX010 (ip), vehicle: water",118 % of control
C=C1C(=O)OC2CC(C)CCC/C(CO)=C/C(OC(=O)/C(=C/CO)CO)C12 (stereo not drawn),T/C,"dose: 3.5 mg/kg/injection, schedule: Q01DX009 (ip), vehicle: saline",104 % of control
same,T/C,"dose: 7.0 mg/kg/injection, schedule: Q01DX009 (ip), vehicle: saline",108 % of control
CC(=O)OCC(CO)(CO)CO,T/C,[13],100 % of control
same,T/C,[14],100 % of control
same,T/C,"dose: 400.0 mg/kg/injection, schedule: Q04DX003 (ip), vehicle: saline",100 % of control
NC(=O)C(CO)NC(=O)OCc1ccccc1 (stereo not drawn),T/C,"dose: 25.0 mg/kg/injection, schedule: Q04DX003 (ip), vehicle: water",110 % of control
same,T/C,"dose: 50.0 mg/kg/injection, schedule: Q04DX003 (ip), vehicle: water",103 % of control
same,T/C,"dose: 100.0 mg/kg/injection, schedule: Q04DX003 (ip), vehicle: water",100 % of control
same,T/C,"dose: 200.0 mg/kg/injection, schedule: Q04DX003 (ip), vehicle: water",100 % of control
same,T/C,"dose: 400.0 mg/kg/injection, schedule: Q04DX003 (ip), vehicle: water",103 % of control
O=C(O)C(Br)(C(=O)O)c1ccccc1,T/C,"dose: 100.0 mg/kg/injection, schedule: Q04DX002 (ip), vehicle: saline with Tween-80",93 % of control
same,T/C,"dose: 200.0 mg/kg/injection, schedule: Q04DX002 (ip), vehicle: saline with Tween-80",97 % of control
same,T/C,"dose: 400.0 mg/kg/injection, schedule: Q04DX002 (ip), vehicle: saline with Tween-80",93 % of control
CC(=O)OC1CC2CC1C1C3C=CC(C3)C21 (stereo not drawn),T/C,[9],109 % of control
CNS(=O)(=O)c1ccc2c(c1)[nH]c(=S)n2C,T/C,[6],95 % of control
same,T/C,[7],109 % of control
same,T/C,[8],100 % of control
COC(=O)c1ccc(SCCCN2CCOCC2)cc1,T/C,[13],90 % of control
same,T/C,[14],113 % of control
Cc1ccc(S(=O)(=O)N(CCO)CC(C)O)cc1 (stereo not drawn),T/C,[1],100 % of control
same,T/C,[2],100 % of control
same,T/C,[3],100 % of control
CC(=O)SCCNCCNC1CC2CCC1C2 (stereo not drawn),T/C,"dose: 5.75 mg/kg/injection, schedule: Q01DX009 (ip), vehicle: saline",104 % of control
same,T/C,"dose: 11.5 mg/kg/injection, schedule: Q01DX009 (ip), vehicle: saline",104 % of control
O=C(Nc1ccccc1Cl)OCC#CCOC(=O)Nc1ccccc1Cl,T/C,[15],90 % of control
same,T/C,[16],95 % of control
same,T/C,[17],86 % of control
Ic1ncnc2c1ncn2C1CCCO1 (stereo not drawn),T/C,"dose: 44.0 mg/kg/injection, schedule: Q01DX009 (ip), vehicle: saline sonified",100 % of control
same,T/C,"dose: 66.0 mg/kg/injection, schedule: Q01DX009 (ip), vehicle: saline sonified",123 % of control
same,T/C,"dose: 100.0 mg/kg/injection, schedule: Q01DX009 (ip), vehicle: saline sonified",114 % of control
same,T/C,[15],115 % of control
same,T/C,"dose: 150.0 mg/kg/injection, schedule: Q01DX009 (ip), vehicle: saline sonified",114 % of control
same,T/C,"dose: 200.0 mg/kg/injection, schedule: Q01DX009 (ip), vehicle: saline sonified",122 % of control
same,T/C,[16],120 % of control
same,T/C,"dose: 400.0 mg/kg/injection, schedule: Q01DX009 (ip), vehicle: saline sonified",100 % of control
same,T/C,[17],105 % of control
